Test results: patent publication US8889887B2, “Pentamethine cyanine fluorescent dyes, preparation methods and uses thereof” (Dalian University of Technology, priority 2011, dated 2014)
Several values for one entry are separate records, joined by “and”; a condition that tells them apart may be missing. Equal entries are not always repeated. Structures can show the parent of a compound that is named as a salt.

Tests used:
[1] = Fluorescence lifetime in solutions with different viscosity; format: physicochemical; conditions: FIG. 5A, 1 μM
Procedure: (§1) Firstly, DMSO solutions of 4 and 7 having a concentration of 1.0×10^−3 M were prepared, respectively. The stock solution of […] was added into 10 mL glycerol-ethanol mixture, and ultrasonicated to remove bubbles. The solution stayed for 1 hour, and then absorption and emission spectra therefore were measured by using UV-visible spectrophotometer and fluorescence spectrophotometer, and fluorescence lifetime of solution with different viscosity was detected as well. UV-visible spectrophotometer, model: Hp8453; fluorescence spectrophotometer model: FP-6500; Fluorescence lifetime equipment: Horiba Jobin Yvon Fluoromax-4-p.
(§2) Glycerol-ethanol mixture was a mixture of glycerol and ethanol, Vglycerol: Vethanol were 1:9, 2:8, 3:7, 4:6, 5:5, 6:4, 7:3, 8:2 and 9:1.

[2] = UV absorption and fluorescence emission spectra in different solvents; format: physicochemical; conditions: for λabs1 maximum absorption wavelength / λabs2 maximum absorption wavelength / λem1 maximum emission wavelength / λem2 maximum emission wavelength: 1 μM; for Φ1 fluorescence quantum yield / Φ2 fluorescence quantum yield: reference Rhodamine B in ethanol
Procedure: Firstly, stock solutions of 4 and 7 in DMSO were prepared respectively. Then sample solutions of 1 μM were prepared by diluting the mother liquors with corresponding chromatography grade solvent. UV absorption and fluorescence emission spectra of the sample solutions in different solvents were measured at room temperature, the results were shown in FIGS. 1A and 1B, respectively.

[3] = Viscosity experiments: absorption and emission spectra in glycerol-ethanol mixtures; format: physicochemical
Procedure: as §1, §2

[4] = test system: MCF-7 cells; assay: Fluorescence imaging of stained cells under laser confocal scanning microscopy; format: cell-based
Procedure: The compounds 4 and 7 (12 μL, 5 μM) in PBS buffer were added into a 6-well plate with incubated MCF-7 cells, and then the plate was incubated for 30 minutes in a cell incubator of 37° C. and 5% CO2. The plate was rinsed with PBS for 5 min×3 times, fresh culture medium was added thereto, and the cells were observed under laser confocal scanning microscopy (Leica, TCS-SP2, Germany). Typical region was selected, the traditional Cy5 was excited at 633 nm and 7 was excited at 514 nm, the cells were observed under oil immersion lens (1000×) for three times.
(§3) MCF-7 cells and Hela cells were inoculated on a 6-well plate and cultured for 24 hours at 37° C. and 5% CO2. Then, the dye was added in a final concentration of 5 μM, and the plate was incubated at 37° C. for 30 min. The culture medium was moved off, and the plate was rinsed with PBS for two times. Fresh culture medium 1200 μL was added and the fluorescence was excited.
as §3, with “Then, H2O2 133.3 µL was added in a final concentration of 1 mM/L, and the plate was incubated at 37° C. for 2 hours. The culture medium was moved off, and the plate was rinsed with PBS for two times. Fresh culture medium 1200 μL was added and then” for “Then,”, “μM,” for “μM, and”
MCF-7 cells and Hela cells were inoculated on a 6-well plate and cultured for 24 hours at 37° C. and 5% CO2. The culture medium was moved off, and the plate was rinsed with PBS for two times. Appropriate amount of 70% ethanol was added and then the plate was incubated at 37° C. for 30 min. Ethanol for fixing was moved off, and the plate was rinsed with PBS for two times. PBS 1200 μL was added and then the dye was added in a final concentration of 5 μM, the plate was incubated at 37° C. for 30 min and the fluorescence was excited.

## CCN1/C(=C/C=C(C=C(C#N)C#N)/C=C/C2=[N+](CC)c3ccccc3C2(C)C)C(C)(C)c2ccccc21 [compound 7, 1,5-di(1-N-ethyl-3,3-dimethyl-2,3-H— lindoline)-3-(2,2-dicyanovinyl)-1,3,5-pentatriene chloride quaternary ammonium salt cyanine dye]
[1]
  fluorescence lifetime at 665 nm with increase of solution viscosity: obviously elongated
[2]; DMSO
  Δλ1 Stokes Shift (λem1 − λabs1): 47 nm
  Δλ2 Stokes Shift (λem2 − λabs2): 31 nm
  Δλ3 Stokes Shift (λem2 − λabs1): 148 nm
  ε1 molar extinction coefficient: 45000 L/cm/mol
  ε2 molar extinction coefficient: 118200 L/cm/mol
  λabs1 maximum absorption wavelength: 522 nm
  λabs2 maximum absorption wavelength: 639 nm
  λem1 maximum emission wavelength: 569 nm
  λem2 maximum emission wavelength: 670 nm
  Φ1 fluorescence quantum yield: 0.0057
  Φ2 fluorescence quantum yield: 0.0113
[2]; acetonitrile
  Δλ1 Stokes Shift (λem1 − λabs1): 48 nm
  Δλ2 Stokes Shift (λem2 − λabs2): 25 nm
  Δλ3 Stokes Shift (λem2 − λabs1): 148 nm
  ε1 molar extinction coefficient: 59400 L/cm/mol
  ε2 molar extinction coefficient: 112000 L/cm/mol
  λabs1 maximum absorption wavelength: 513 nm
  λabs2 maximum absorption wavelength: 635 nm
  λem1 maximum emission wavelength: 561 nm
  λem2 maximum emission wavelength: 661 nm
  Φ1 fluorescence quantum yield: 0.0017
  Φ2 fluorescence quantum yield: 0.0019
[2]; dichloromethane
  Δλ1 Stokes Shift (λem1 − λabs1): 56 nm
  Δλ2 Stokes Shift (λem2 − λabs2): 16 nm
  Δλ3 Stokes Shift (λem2 − λabs1): 160 nm
  ε1 molar extinction coefficient: 49700 L/cm/mol
  ε2 molar extinction coefficient: 113500 L/cm/mol
  λabs1 maximum absorption wavelength: 512 nm
  λabs2 maximum absorption wavelength: 656 nm
  λem1 maximum emission wavelength: 568 nm
  λem2 maximum emission wavelength: 672 nm
  Φ1 fluorescence quantum yield: 0.0016
  Φ2 fluorescence quantum yield: 0.006
[2]; ethanol
  Δλ1 Stokes Shift (λem1 − λabs1): 56 nm
  Δλ2 Stokes Shift (λem2 − λabs2): 27 nm
  Δλ3 Stokes Shift (λem2 − λabs1), pseudo-Stokes Shift: 158 nm
  ε1 molar extinction coefficient: 53100 L/cm/mol
  ε2 molar extinction coefficient: 125600 L/cm/mol
  λabs1 maximum absorption wavelength: 510 nm
  λabs2 maximum absorption wavelength: 641 nm
  λem1 maximum emission wavelength: 566 nm
  λem2 maximum emission wavelength: 668 nm
  Φ1 fluorescence quantum yield: 0.0022
  Φ2 fluorescence quantum yield: 0.0048
[2]; low-viscosity solvents of different polarity
  sensitivity to solvent polarity: insensitive to solvent polarity
[2]; methanol
  Δλ1 Stokes Shift (λem1 − λabs1): 59 nm
  Δλ2 Stokes Shift (λem2 − λabs2): 25 nm
  Δλ3 Stokes Shift (λem2 − λabs1): 156 nm
  ε1 molar extinction coefficient: 49000 L/cm/mol
  ε2 molar extinction coefficient: 122000 L/cm/mol
  λabs1 maximum absorption wavelength: 509 nm
  λabs2 maximum absorption wavelength: 636 nm
  λem1 maximum emission wavelength: 568 nm
  λem2 maximum emission wavelength: 665 nm
  Φ1 fluorescence quantum yield: 0.0022
  Φ2 fluorescence quantum yield: 0.0031
[2]; solvent not stated
  absorption peak, longer wavelength: 655 nm
  absorption peak, shorter wavelength: 510 nm
  emission peak, longer wavelength: 668 nm and 665 nm
  emission peak, shorter wavelength: 565 nm
[2]; water
  Δλ1 Stokes Shift (λem1 − λabs1): 50 nm
  Δλ2 Stokes Shift (λem2 − λabs2): 28 nm
  Δλ3 Stokes Shift (λem2 − λabs1): 135 nm
  ε1 molar extinction coefficient: 31000 L/cm/mol
  ε2 molar extinction coefficient: 52400 L/cm/mol
  λabs1 maximum absorption wavelength: 520 nm
  λabs2 maximum absorption wavelength: 627 nm
  λem1 maximum emission wavelength: 570 nm
  λem2 maximum emission wavelength: 655 nm
  Φ1 fluorescence quantum yield: 0.0006
  Φ2 fluorescence quantum yield: 0.0028
[3]; FIG. 4A, 1 μM
  UV absorption with variation of solution viscosity: kept constant
[3]; glycerol-ethanol mixtures
  sensitivity of fluorescence intensity to solvent viscosity: quite sensitive to solvent viscosity
[4]; MCF-7 cells stood 4 hours at room temperature after incubation (dying)
  ratio value of fluorescence (red 665 / green 565 nm channel): ratio value of the probe was between (1) and (2)
[4]; MCF-7 cells treated with hydrogen peroxide (1 mM), apoptosis induced
  ratio value of fluorescence (red 665 / green 565 nm channel): ratio value was increased
[4]; normal live MCF-7 cells, 5 μM, 30 minutes
  ratio value of fluorescence (red 665 / green 565 nm channel): ratio value was small
